Where two headings read alike, the source gives them in different places. Marks after values point to notes of the source that are not given here.
Assays:
[1] = parameters: method as in PMID 29473431, PMID 38520556, PMID 33492746; conditions: doses of 200‐1600 mg twice daily; cited from earlier work
[2] = Safety (TEAEs) Part 1: tazemetostat coadministered with itraconazole
Procedure: Part 1 of the study evaluated the DDI between tazemetostat and itraconazole. On the mornings of Days 1 and 15, patients received a single dose of tazemetostat 400 mg orally. On Days 3‐14, patients received tazemetostat 400 mg twice daily (morning and evening). On Days 18‐20, patients received itraconazole 200 mg orally once daily in the morning. On Days 21‐35, tazemetostat 400 mg twice daily was coadministered in the morning with a single dose of itraconazole 200 mg. On Day 36, patients received a single dose of tazemetostat 400 mg coadministered in the morning with a single dose of itraconazole 200 mg. On Days 37 and 38, patients received a single dose of itraconazole 200 mg (Figure 1A). Throughout Part 1, administration of itraconazole occurred 1 hour after a meal.
(§1) Safety was assessed by monitoring treatment‐emergent adverse events (TEAEs) and vital signs, electrocardiography, and clinical laboratory tests. TEAEs were defined as adverse events that started or worsened in severity on or after the date of the first dose of the study drug through 30 days after the last dose. Treatment‐related TEAEs were summarized by each study drug for both study parts. Adverse events were coded using the Medical Dictionary for Regulatory Activities Version 23.1 and graded per Common Terminology Criteria for Adverse Events Version 5.0.

[3] = Safety (TEAEs) Part 2: tazemetostat coadministered with rifampin
Procedure: (§2) Part 2 of the study evaluated the DDI between tazemetostat and rifampin. On the mornings of Days 1 and 15, patients received a single dose of tazemetostat 800 mg orally. On Days 3‐14, patients received tazemetostat 800 mg twice daily. On Days 17‐23, patients received tazemetostat 800 mg twice daily, coadministered in the morning with a single dose of rifampin 600 mg orally. On the morning of Day 24, patients received a single dose of tazemetostat 800 mg coadministered with rifampin 600 mg. On the morning of Day 25, patients received rifampin 600 mg (Figure 1B). Throughout Part 2, administration of rifampin occurred 1 hour before a meal.
as §1

[4] = Phase I DDI study Part 2: tazemetostat plasma PK alone and with rifampin (noncompartmental analysis); format: in vivo, human; conditions: for AUC0‐12h ratio, geoLSM (90% CI) / Cmax ratio, geoLSM (90% CI): steady state with rifampin vs alone, Day 24 versus Day 15; for RacAUC (AUC0‐12h accumulation ratio), geoLSM (90% CI) / RacCmax (Cmax accumulation ratio), geoLSM (90% CI): tazemetostat 800 mg alone, Day 15 versus Day 1; for Tmax / AUC / AUC(0-t) / Cmax / half-life: human; for Tmax: read-out: tmax, median (range)
Excerpt: This was a Phase I, multicenter, open‐label, 2‐part study encompassing a fixed‐sequence design that aimed to characterize the PK of tazemetostat when administered as single and twice‐daily oral doses alone or in combination with either itraconazole (Part 1) or rifampin (Part 2). Secondary objectives were to evaluate the safety profile of tazemetostat when coadministered with either itraconazole (Part 1) or rifampin (Part 2).
as §2
In Part 2, plasma concentrations of tazemetostat following tazemetostat dosing on Days 1, 15, and 24 were quantified for PK analyses before dosing (0 hour) and at 0.5, 1, 1.5, 2, 4, 6, 8, 12, 24, 36, and 48 hours.
Plasma concentrations of tazemetostat, over the ranges of 1.00‐2000 ng/mL, were quantified by a fully validated liquid chromatography with tandem mass spectrometric detection analytical method. Samples that had no detectable peak or had the calculated concentration <1.00 ng/mL were reported as below the lower limit of quantification. Tazemetostat analysis consisted of protein precipitation extraction and separation using mobile phases of 100 mM ammonium formate/water (1:9 v/v) (mobile phase A) and 100 mM ammonium formate/acetonitrile (1:9 v/v) (mobile phase B). Detection was achieved using an API‐5500 mass spectrometer (AB Sciex) using electrospray ionization (positive‐ion mode) in the multiple reaction monitoring mode. The multiple reaction monitoring mode m/z transitions monitored were […] for tazemetostat and the dwell time was set at 300 milliseconds.
Plasma concentration‐time data for tazemetostat were analyzed by noncompartmental analysis using the validated software program Phoenix WinNonlin Professional Version 8.3 (Certara Inc., Mountain View, CA).

[5] = Part 2, tazemetostat 800 mg twice daily alone, multiple dosing, Day 15, plasma

CCN(c1cc(-c2ccc(CN3CCOCC3)cc2)cc(C(=O)NCc2c(C)cc(C)[nH]c2=O)c1C)C1CCOCC1 [Tazemetostat]
dose proportionality of systemic exposure [1]: approximately dose proportional
Deaths due to serious TEAEs ([2]; Part 1, within 30 days following the last dose, tazemetostat with itraconazole, neither considered treatment related): Two deaths
Any TEAE Grade 3 or 4, patients ([2]; human, in vivo): 11 (52.4) n (%)
Any TEAE leading to dose reduction, patients ([2]; human, in vivo): 0 n (%)
Any TEAE leading to study drug discontinuation, patients ([2]; human, in vivo): 1 (4.8) n (%)
Any TEAE leading to study drug interruption, patients ([2]; human, in vivo): 9 (42.9) n (%)
Any TESAE, patients ([2]; human, in vivo): 8 (38.1) n (%)
Any treatment-related TEAE Grade 3 or 4, patients ([2]; human, in vivo): 2 (9.5) n (%)
Any treatment-related TESAE, patients ([2]; human, in vivo): 0 n (%)
TEAE anemia, frequency ([2]; human, in vivo): 28.6%
TEAE constipation, frequency ([2]; human, in vivo): 23.8%
TEAE decreased appetite, frequency ([2]; human, in vivo): 33%
TEAE dyspnea, frequency ([2]; human, in vivo): 33%
TEAE fatigue, frequency ([2]; human, in vivo): 28.6%
TEAE nausea, frequency ([2]; human, in vivo): 28.6%
Treatment-related TEAE Grade 3 or 4, related to the named study drug, patients ([2]; human, in vivo): 2 (9.5) n (%)
Treatment-related TEAEs, related to the named study drug, patients ([2]; human, in vivo): 12 (57.1) n (%)
Treatment-related TESAE, related to the named study drug, patients ([2]; human, in vivo): 0 n (%)
Treatment‐related Grade 3/4 TEAE anemia ([2]; human, in vivo): 9.5%
Treatment‐related Grade 3/4 TEAE hyponatremia ([2]; human, in vivo): 4.8%
Deaths resulting from TEAEs ([3]; Part 2): no deaths
Any TEAE Grade 3 or 4, patients ([3]; human, in vivo): 13 (61.9) n (%)
Any TEAE leading to dose reduction, patients ([3]; human, in vivo): 2 (9.5) n (%)
Any TEAE leading to study drug discontinuation, patients ([3]; human, in vivo): 0 n (%)
Any TEAE leading to study drug interruption, patients ([3]; human, in vivo): 7 (33.3) n (%)
Any TEAE, patients ([3]; human, in vivo): 21 (100.0) n (%)
Any TESAE, patients ([3]; human, in vivo): 9 (42.9) n (%)
Any treatment-related TEAE Grade 3 or 4, patients ([3]; human, in vivo): 7 (33.3) n (%)
Any treatment-related TESAE, patients ([3]; human, in vivo): 1 (4.8) n (%)
Grade 3/4 TEAE decreased lymphocyte count ([3]; human, in vivo): 9.5%
TEAE anemia, frequency ([3]; human, in vivo): 23.8%
TEAE constipation, frequency ([3]; human, in vivo): 23.8%
TEAE cough, frequency ([3]; human, in vivo): 28.6%
TEAE diarrhea, frequency ([3]; human, in vivo): 33.3%
TEAE fatigue, frequency ([3]; human, in vivo): 42.9%
TEAE nausea, frequency ([3]; human, in vivo): 23.8%
Tazemetostat‐related Grade 3/4 TEAE acute kidney injury ([3]; human, in vivo): 4.8%
Tazemetostat‐related Grade 3/4 TEAE alanine aminotransferase increased ([3]; human, in vivo): 4.8%
Tazemetostat‐related Grade 3/4 TEAE anemia ([3]; human, in vivo): 9.5%
Tazemetostat‐related Grade 3/4 TEAE aspartate aminotransferase ([3]; human, in vivo): 4.8%
Tazemetostat‐related Grade 3/4 TEAE diarrhea ([3]; human, in vivo): 4.8%
Tazemetostat‐related Grade 3/4 TEAE syncope ([3]; human, in vivo): 4.8%
Treatment-related TEAE Grade 3 or 4, related to the named study drug, patients ([3]; human, in vivo): 7 (33.3) n (%)
Treatment-related TEAEs, related to the named study drug, patients ([3]; human, in vivo): 16 (76.2) n (%)
Treatment-related TESAE, related to the named study drug, patients ([3]; human, in vivo): 1 (4.8) n (%)
Any TEAE, patients ([3]; in vivo): all patients
AUC0‐12h ratio, geoLSM (90% CI) ([4]; Part 2): 0.163 (0.128‐0.208) ^d
Cmax ratio, geoLSM (90% CI) ([4]; Part 2): 0.164 (0.122‐0.219) ^d
AUC0‐12h ratio, geoLSM (90% CI) ([4]; Part 2, listed as tazemetostat): 0.163
Cmax ratio, geoLSM (90% CI) ([4]; Part 2, listed as tazemetostat): 0.164
RacAUC (AUC0‐12h accumulation ratio), geoLSM (90% CI) ([4]; Part 2): 0.816 (0.638‐1.04) ^e
RacCmax (Cmax accumulation ratio), geoLSM (90% CI) ([4]; Part 2): 0.828 (0.635‐1.08) ^e
RacAUC (AUC0‐12h accumulation ratio), geoLSM (90% CI) ([4]; Part 2, listed as tazemetostat): 0.816
RacCmax (Cmax accumulation ratio), geoLSM (90% CI) ([4]; Part 2, listed as tazemetostat): 0.828
t1/2, GeoMean (CV%) [4, 5]: 7.55 (20.3) hour
tmax, median (range) [4, 5]: 1.00 (0.63‐4.00) hour
Tmax ([4]; oral, Part 2, tazemetostat 800 mg multiple dosing with rifampin 600 mg once daily, Day 24, plasma): 1.01 h
AUC ([4]; plasma, oral, 800 mg, Part 2, tazemetostat 800 mg twice daily alone, multiple dosing, Day 15, plasma, read-out: AUC0‐12 h, GeoMean (CV%)): 3610 ng·h/mL
AUC ([4]; plasma, oral, 800 mg, Part 2, tazemetostat 800 mg twice daily alone, multiple dosing, Day 15, plasma, read-out: AUC0‐12 h, mean (SD)): 4330 ng·h/mL
AUC(0-t) ([4]; plasma, oral, 800 mg, Part 2, tazemetostat 800 mg twice daily alone, multiple dosing, Day 15, plasma, read-out: AUClast, GeoMean (CV%)): 4270 ng·h/mL
AUC(0-t) ([4]; plasma, oral, 800 mg, Part 2, tazemetostat 800 mg twice daily alone, multiple dosing, Day 15, plasma, read-out: AUClast, mean (SD)): 5220 ng·h/mL
Cmax ([4]; plasma, oral, 800 mg, Part 2, tazemetostat 800 mg twice daily alone, multiple dosing, Day 15, plasma, read-out: Cmax, GeoMean (CV%)): 1100 ng/mL
Cmax ([4]; plasma, oral, 800 mg, Part 2, tazemetostat 800 mg twice daily alone, multiple dosing, Day 15, plasma, read-out: Cmax, mean (SD)): 1380 ng/mL
half-life ([4]; plasma, oral, 800 mg, Part 2, tazemetostat 800 mg twice daily alone, multiple dosing, Day 15, plasma, read-out: t1/2, mean (SD) (converted)): 7.7 h
AUC ([4]; plasma, oral, Part 2, tazemetostat 800 mg multiple dosing with rifampin 600 mg once daily, Day 24, plasma, read-out: AUC0‐12 h, GeoMean (CV%)): 588 ng·h/mL
AUC ([4]; plasma, oral, Part 2, tazemetostat 800 mg multiple dosing with rifampin 600 mg once daily, Day 24, plasma, read-out: AUC0‐12 h, mean (SD)): 770 ng·h/mL
AUC(0-t) ([4]; plasma, oral, Part 2, tazemetostat 800 mg multiple dosing with rifampin 600 mg once daily, Day 24, plasma, read-out: AUClast, GeoMean (CV%)): 676 ng·h/mL
AUC(0-t) ([4]; plasma, oral, Part 2, tazemetostat 800 mg multiple dosing with rifampin 600 mg once daily, Day 24, plasma, read-out: AUClast, mean (SD)): 934 ng·h/mL
Cmax ([4]; plasma, oral, Part 2, tazemetostat 800 mg multiple dosing with rifampin 600 mg once daily, Day 24, plasma, read-out: Cmax, GeoMean (CV%)): 181 ng/mL
Cmax ([4]; plasma, oral, Part 2, tazemetostat 800 mg multiple dosing with rifampin 600 mg once daily, Day 24, plasma, read-out: Cmax, mean (SD)): 233 ng/mL
half-life ([4]; plasma, oral, Part 2, tazemetostat 800 mg multiple dosing with rifampin 600 mg once daily, Day 24, plasma, read-out: t1/2, GeoMean (CV%) (converted)): 4.86 h
half-life ([4]; plasma, oral, Part 2, tazemetostat 800 mg multiple dosing with rifampin 600 mg once daily, Day 24, plasma, read-out: t1/2, mean (SD) (converted)): 5.06 h
AUC ([4]; plasma, po, 800 mg, Part 2, tazemetostat 800 mg oral single dose alone, Day 1, plasma, read-out: AUC0‐12 h, GeoMean (CV%)): 4420 ng·h/mL
AUC ([4]; plasma, po, 800 mg, Part 2, tazemetostat 800 mg oral single dose alone, Day 1, plasma, read-out: AUC0‐12 h, mean (SD)): 5310 ng·h/mL
AUC(0-t) ([4]; plasma, po, 800 mg, Part 2, tazemetostat 800 mg oral single dose alone, Day 1, plasma, read-out: AUClast, GeoMean (CV%)): 5200 ng·h/mL
AUC(0-t) ([4]; plasma, po, 800 mg, Part 2, tazemetostat 800 mg oral single dose alone, Day 1, plasma, read-out: AUClast, mean (SD)): 6370 ng·h/mL
Cmax ([4]; plasma, po, 800 mg, Part 2, tazemetostat 800 mg oral single dose alone, Day 1, plasma, read-out: Cmax, GeoMean (CV%)): 1330 ng/mL
Cmax ([4]; plasma, po, 800 mg, Part 2, tazemetostat 800 mg oral single dose alone, Day 1, plasma, read-out: Cmax, mean (SD)): 1550 ng/mL
half-life ([4]; plasma, po, 800 mg, Part 2, tazemetostat 800 mg oral single dose alone, Day 1, plasma, read-out: t1/2, GeoMean (CV%) (converted)): 6.22 h
half-life ([4]; plasma, po, 800 mg, Part 2, tazemetostat 800 mg oral single dose alone, Day 1, plasma, read-out: t1/2, mean (SD) (converted)): 6.49 h
Tmax ([4]; Part 2, tazemetostat 800 mg oral single dose alone, Day 1, plasma): 1.04 h
decrease of tazemetostat steady‐state exposure (Cmax and AUC0‐12h) by rifampin ([4]; steady state, Day 24/Day 15): approximately 84%

Source: publication PMC12209990, “Effect of Cytochrome P450 3A Inhibition and Induction by Itraconazole and Rifampin on Tazemetostat Pharmacokinetics in Patients With Advanced Malignancies” (Clinical Pharmacology in Drug Development, 2025)
